Source: patent US7462614B2, “Imidazotriazine compounds” (Smithkline Beecham Corporation, priority 2003, dated 2008)

Assays:
[1] = test system: prostate (PC3) tumor cell line; experiment: Methylene Blue Growth Inhibition Assay, PC3; assay type: cell-based; conditions: Homo sapiens, 72 h; PC3, 3 days; read-out: MeB Cell Line IC50
Description: (§1) II. Methylene Blue Growth Inhibition Assay
(§2) Medium was removed by aspiration.

[2] = test system: colon (RKO) tumor cell line; experiment: Methylene Blue Growth Inhibition Assay, RKO; assay type: cell-based; conditions: Homo sapiens, 72 h, 3 days, read-out: MeB Cell Line IC50
Description: as §1, §2

[3] = test system: colon (HCT116) tumor cell line; experiment: Methylene Blue Growth Inhibition Assay, HCT116; assay type: cell-based; conditions: Homo sapiens, HCT-116, 72 h; HCT116, 3 days; read-out: MeB Cell Line IC50
Description: as §1, §2

[4] = test system: Normal Human foreskin fibroblasts (HFF); experiment: Methylene Blue Growth Inhibition Assay, HFF; assay type: cell-based; conditions: 72 h, 3 days, read-out: MeB Cell Line IC50
Description: as §1, §2

[5] = test system: lung (H460) tumor cell line; experiment: Methylene Blue Growth Inhibition Assay, H460; assay type: cell-based; conditions: Homo sapiens, NCI-H460, 72 h; H460, 3 days; read-out: MeB Cell Line IC50
Description: as §1, §2

[6] = test system: breast tumor (MCF7) cell line; experiment: Methylene Blue Growth Inhibition Assay, MCF7; assay type: cell-based; conditions: Homo sapiens, 72 h; MCF7, 3 days; read-out: MeB Cell Line IC50
Description: as §1, §2

[7] = molecular target: T1, truncated human PLK1 (kinase domain) (Homo sapiens, UniProt P53350); experiment: Assay for Inhibition of PLK1 (33P SPA enzyme activity); assay type: biochemical; conditions: 1 μM ATP, 2 nM enzyme; read-out: Ave pIC50 PLK Enzyme Inhibition (converted)
T1 construct: made in house; host or cells: baculovirus-infected T. ni insect cells
T1 sequence (P53350 21-346): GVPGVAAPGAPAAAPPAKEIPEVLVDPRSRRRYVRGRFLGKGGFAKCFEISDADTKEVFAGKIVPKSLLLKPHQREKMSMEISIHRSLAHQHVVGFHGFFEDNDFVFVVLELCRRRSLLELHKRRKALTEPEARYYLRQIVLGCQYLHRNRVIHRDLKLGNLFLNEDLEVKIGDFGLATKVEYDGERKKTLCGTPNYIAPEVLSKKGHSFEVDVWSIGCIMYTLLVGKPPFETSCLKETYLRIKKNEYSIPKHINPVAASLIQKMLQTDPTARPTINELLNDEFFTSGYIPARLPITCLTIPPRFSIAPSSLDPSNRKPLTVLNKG
Description: I. Assay for Inhibition of PLK1
A. Preparation of 6× N-Terminal His-Tagged PLK Kinase Domain
All procedures are performed at 4° C. Cells are lysed in 25 mM HEPES, 200 mM NaCl, 25 mM imidazole; pH 8.0. The homogenate is centrifuged at 14K rpm in a SLA-1500 rotor for 40 min and the supernatant filtered through a 1.2 micron filter. The supernatant is loaded onto a Nickel chelating Sepharose (Amersham Pharmacia) column and washed with 25 mM HEPES, 500 mM NaCl, 25 mM imidazole; pH 8.0. […] PLK is concentrated using a 10 kDa molecular weight cutoff membrane and then loaded onto a Superdex 75 gel filtration (Amersham BioSciences) column equilibrated in 25 mM HEPES, 1 mM DTT, 500 mM NaCl; pH 8.0. Fractions containing PLK are determined by SDS-PAGE. PLK is pooled, aliquoted and stored at […]. Samples are quality controlled using mass spectrometry.
B. Enzyme Activity±Inhibitors is Determined As Follows:
Compounds are added to the plate (1 μL in 100% DMSO).
Immediately upon addition of enzyme and thorough mixing, add 20 uL per well into 384-well white plates containing compounds and controls. […] The enzymatic reaction is stopped with 50 μl of bead mix (50 mM EDTA, 2 mg/ml Streptavidin-coated SPA beads in Standard Dulbecco's PBS (without Mg^2+and Ca^2+), and 60 μM ATP).

Compound: CC(=O)Nc1ccc(Nc2ncc3c(C)nc(-c4cccc(C(F)(F)F)c4)n3n2)cc1 [Example 46, N-[4-({5-Methyl-7-[3-(trifluoromethyl)phenyl]imidazo[5,1-f][1,2,4]triazin-2-yl}amino)phenyl]acetamide]
- IC50 [1]: 10 to 30 µM
- IC50 [2]: 1 to 10 µM
- IC50 [3]: 1 to 10 µM
- IC50 [4]: 10 to 30 µM
- IC50 [5]: 10 to 30 µM
- IC50 [6]: 1 to 10 µM
- IC50 [7]: < 0.1 µM

Compound: Cc1nc(-c2cccc(C(F)(F)F)c2)n2nc(Nc3cccc(S(N)(=O)=O)c3)ncc12 [Example 41, 3-({5-Methyl-7-[3-(trifluoromethyl)phenyl]imidazo[5,1-f][1,2,4]triazin-2-yl}amino)benzenesulfonamide]
- IC50 [1]: 10 to 30 µM
- IC50 [2]: 1 to 10 µM
- IC50 [3]: 1 to 10 µM
- IC50 [4]: 10 to 30 µM
- IC50 [5]: 1 to 10 µM
- IC50 [6]: 1 to 10 µM
- IC50 [7]: 0.1 to 10 µM

Compound: COc1cc(Nc2ncc3c(C)nc(-c4ccccc4O)n3n2)cc(OC)c1OC [Example 22, 2-{5-Methyl-2-[(3,4,5-trimethoxyphenyl)amino]imidazo[5,1-f][1,2,4]triazin-7-yl}phenol]
- IC50 [1]: 10 to 30 µM
- IC50 [2]: 10 to 30 µM
- IC50 [3]: 10 to 30 µM
- IC50 [4]: 10 to 30 µM
- IC50 [5]: 10 to 30 µM
- IC50 [6]: 10 to 30 µM
- IC50 [7]: 0.1 to 10 µM

Compound: COc1cc(Nc2ncc3c(C)nc(-c4cccc(C#N)c4)n3n2)cc(OC)c1OC [Example 8, 3-{5-Methyl-2-[(3,4,5-trimethoxyphenyl)amino]imidazo[5,1-f][1,2,4]triazin-7-yl}benzonitrile]
- IC50 [1]: 10 to 30 µM
- IC50 [2]: 10 to 30 µM
- IC50 [3]: 10 to 30 µM
- IC50 [4]: 10 to 30 µM
- IC50 [5]: 10 to 30 µM
- IC50 [6]: 10 to 30 µM
- IC50 [7]: < 0.1 µM

Compound: COc1ccc(NC(C)=O)cc1Nc1ncc2c(C)nc(-c3cccc(C(F)(F)F)c3)n2n1 [Example 43, N-[4-Methoxy-3-({5-methyl-7-[3-(trifluoromethyl)phenyl]imidazo-[5,1-f][1,2,4]triazin-2-yl}amino)phenyl]acetamide]
- IC50 [1]: 10 to 30 µM
- IC50 [2]: 1 to 10 µM
- IC50 [3]: 1 to 10 µM
- IC50 [4]: 10 to 30 µM
- IC50 [5]: 1 to 10 µM
- IC50 [6]: 1 to 10 µM
- IC50 [7]: < 0.1 µM

Compound: COc1cc(Nc2ncc3c(C)nc(-c4cccc(C(F)(F)F)c4)n3n2)cc(OC)c1OC [Example 5, 5-Methyl-7-[3-(trifluoromethyl)phenyl]-N-(3,4,5-trimethoxyphenyl)-imidazo[5,1-f][1,2,4]triazin-2-amine]
- IC50 [1]: 1 to 10 µM
- IC50 [2]: 1 to 10 µM
- IC50 [3]: 1 to 10 µM
- IC50 [4]: 1 to 10 µM
- IC50 [5]: 1 to 10 µM
- IC50 [6]: 1 to 10 µM

Compound: Cc1nc(-c2cccc(C(F)(F)F)c2)n2nc(Nc3ccc(O)cc3)ncc12 [Example 49, 4-({5-Methyl-7-[3-(trifluoromethyl)phenyl]imidazo[5,1-f][1,2,4]triazin-2-yl}amino)phenol]
- IC50 [7]: < 0.1 µM

Compound: COc1ccc(CCNC(C)=O)cc1Nc1ncc2c(C)nc(-c3cccc(C(F)(F)F)c3)n2n1 [Example 52, N-{2-[4-Methoxy-3-({5-methyl-7-[3-(trifluoromethyl)phenyl]-imidazo[5,1-f][1,2,4]triazin-2-yl}amino)phenyl]ethyl}acetamide]
- IC50 [7]: < 0.1 µM

Compound: Cc1nc(-c2ccccc2)n2nc(NC3CCOCC3)ncc12 [Example 101, 5-Methyl-7-phenyl-N-(tetrahydro-2H-pyran-4-yl)imidazo[5,1-f][1,2,4]triazin-2-amine]
- IC50 [7]: > 10 µM

Compound: COc1ccccc1-c1nc(C)c2cnc(Nc3cc(OC)c(OC)c(OC)c3)nn12 [Example 21, 7-(2-Methoxyphenyl)-5-methyl-N-(3,4,5-trimethoxyphenyl)-imidazo[5,1-f][1,2,4]triazin-2-amine]
- IC50 [7]: 0.1 to 10 µM

Compound: COc1cc(Nc2ncc3c(C)nc(-c4ccccc4NC(=O)C(F)(F)F)n3n2)cc(OC)c1OC [Example 7, 2,2,2-Trifluoro-N-(2-{5-methyl-2-[(3,4,5-trimethoxyphenyl)amino]-imidazo[5,1-f][1,2,4]triazin-7-yl}phenyl)acetamide]
- IC50 [7]: 0.1 to 10 µM

Compound: COc1ccc(Nc2ncc3c(C)nc(-c4cccc(F)c4)n3n2)cc1 [Example 89, 7-(3-Fluorophenyl)-5-methyl-N-[4-(methyloxy)phenyl]imidazo[5,1-f][1,2,4]triazin-2-amine]
- IC50 [7]: 0.1 to 10 µM

Compound: COC(=O)c1cccc(-c2nc(C)c3cnc(Nc4cc(OC)c(OC)c(OC)c4)nn23)c1 [Example 12, Methyl 3-{5-methyl-2-[(3,4,5-trimethoxyphenyl)amino]imidazo[5,1-f][1,2,4]triazin-7-yl}benzoate]
- IC50 [7]: 0.1 to 10 µM

Compound: COc1cc(Nc2ncc3c(C)nc(-c4cccc(/C(=C\C(N)=O)c5ccccc5)c4)n3n2)cc(OC)c1OC [Example 62, (2Z)-3-(3-{5-Methyl-2-[(3,4,5-trimethoxyphenyl)amino]-imidazo[5,1-f][1,2,4]triazin-7-yl}phenyl)-3-phenylprop-2-enamide]
- IC50 [7]: 0.1 to 10 µM

Compound: COc1ccc(Nc2ncc3c(C)nc(-c4ccccc4)n3n2)cc1OC [Example 92, N-[3,4-Bis(methyloxy)phenyl]-5-methyl-7-phenylimidazo[5,1-f][1,2,4]triazin-2-amine]
- IC50 [7]: 0.1 to 10 µM

Compound: COc1cc(Nc2ncc3c(C)nc(-c4ccc5c(c4)OCO5)n3n2)cc(OC)c1OC [Example 28, 7-(1,3-Benzodioxol-5-yl)-5-methyl-N-(3,4,5-trimethoxyphenyl)-imidazo[5,1-f][1,2,4]triazin-2-amine]
- IC50 [7]: 0.1 to 10 µM

Compound: CC(=O)N1CCc2cc(Nc3ncc4c(C)nc(-c5ccccc5)n4n3)ccc21 [Example 99, N-(1-Acetyl-2,3-dihydro-1H-indol-5-yl)-5-methyl-7-phenylimidazo[5,1-f][1,2,4]triazin-2-amine]
- IC50 [7]: 0.1 to 10 µM

Compound: COc1cc(Nc2ncc3c(C)nc(-c4cccc(Nc5cccc(S(=O)(=O)NC6CC6)c5)c4)n3n2)cc(OC)c1OC [Example 69, N-Cyclopropyl-3-[(3-{5-methyl-2-[(3,4,5-trimethoxyphenyl)amino]imidazo[5,1-f][1,2,4]triazin-7-yl}phenyl)amino]benzenesulfonamide]
- IC50 [7]: 0.1 to 10 µM

Compound: Cc1nc(-c2cccc(C(F)(F)F)c2)n2nc(Nc3ccc(OCCN4CCCC4)cc3)ncc12 [Example 50, 5-Methyl-N-[4-(2-pyrrolidin-1-ylethoxy)phenyl]-7-[3-(trifluoromethyl)phenyl]imidazo[5,1-f][1,2,4]triazin-2-amine]
- IC50 [7]: 0.1 to 10 µM

Compound: COc1cc(Nc2ncc3c(C)nc(-c4cccn4C)n3n2)cc(OC)c1OC [Example 34, 5-Methyl-7-(1-methyl-1H-pyrrol-2-yl)-N-(3,4,5-trimethoxyphenyl)-imidazo[5,1-f][1,2,4]triazin-2-amine]
- IC50 [7]: 0.1 to 10 µM

Compound: COc1cc(Nc2ncc3c(C)nc(-c4cc5ccccc5[nH]4)n3n2)cc(OC)c1OC [Example 32, 7-(1H-Indol-2-yl)-5-methyl-N-(3,4,5-trimethoxyphenyl)imidazo-[5,1-f][1,2,4]triazin-2-amine]
- IC50 [7]: 0.1 to 10 µM

Compound: COc1cc(Nc2ncc3c(C)nc(-c4cccc(C#Cc5cn[nH]c5)c4)n3n2)cc(OC)c1OC [Example 58, 5-Methyl-7-[3-(1H-pyrazol-4-ylethynyl)phenyl]-N-(3,4,5-trimethoxyphenyl)imidazo[5,1-f][1,2,4]triazin-2-amine]
- IC50 [7]: 0.1 to 10 µM

Compound: COc1cc(Nc2ncc3c(C)nc(C4CCCCC4)n3n2)cc(OC)c1OC [Example 90, 7-Cyclohexyl-5-methyl-N-[3,4,5-tris(methyloxy)phenyl]imidazo[5,1-f][1,2,4]triazin-2-amine]
- IC50 [7]: 0.1 to 10 µM

Compound: Cc1nc(-c2ccccc2)n2nc(NC3CCCCC3)ncc12 [Example 100, N-Cyclohexyl-5-methyl-7-phenylimidazo[5,1-f][1,2,4]triazin-2-amine]
- IC50 [7]: > 10 µM

Compound: COc1cc(Nc2ncc3c(C)nc(-c4cccc(Nc5ccc(-n6ccnc6)cc5)c4)n3n2)cc(OC)c1OC [Example 65, 7-(3-{[4-(1H-Imidazol-1-yl)phenyl]amino}phenyl)-5-nv-5-methyl-N-(3,4,5-trimethoxyphenyl)imidazo[5,1-f][1,2,4]triazin-2-amine]
- IC50 [7]: > 10 µM

Compound: COc1cc(Nc2ncc3c(C)nc(-c4ccc([N+](=O)[O-])[nH]4)n3n2)cc(OC)c1OC [Example 33, 5-Methyl-7-(5-nitro-1H-pyrrol-2-yl)-N-(3,4,5-trimethoxyphenyl)-imidazo[5,1-f][1,2,4]triazin-2-amine]
- IC50 [7]: 0.1 to 10 µM

Compound: COc1ccc(F)cc1Nc1ncc2c(C)nc(-c3cccc(C(F)(F)F)c3)n2n1 [Example 51, N-(5-Fluoro-2-methoxyphenyl)-5-methyl-7-[3-(trifluoromethyl)phenyl]-imidazo[5,1-f][1,2,4]triazin-2-amine]
- IC50 [7]: 0.1 to 10 µM
